# Reference: paper PMC4512239 (Clinical cancer research : an official journal of the …, 2015)
# Experiment: phase I safety and tolerability
# Format: in vivo, human
smiles,measurement,setting,value
CNC(=O)c1cccc(-c2ccc3c(N4CCOC[C@@H]4C)nc(N4CCOC[C@@H]4C)nc3n2)c1 [AZD2014],"Constipation, CTCAE grade >=3",Part A 25mg BD solution (N=6),0 Number (%) of patients
same,"Cough, Any grade",Part A 25mg BD solution (N=6),3 (50.0) Number (%) of patients
same,"Cough, CTCAE grade 1-2",Part A 25mg BD solution (N=6),3 (50.0) Number (%) of patients
same,"Cough, CTCAE grade >=3",Part A 25mg BD solution (N=6),0 Number (%) of patients
same,"Decreased appetite, Any grade",Part A 25mg BD solution (N=6),3 (50.0) Number (%) of patients
same,"Decreased appetite, CTCAE grade 1-2",Part A 25mg BD solution (N=6),3 (50.0) Number (%) of patients
same,"Decreased appetite, CTCAE grade >=3",Part A 25mg BD solution (N=6),0 Number (%) of patients
same,"Diarrhea, Any grade",Part A 25mg BD solution (N=6),2 (33.3) Number (%) of patients
same,"Diarrhea, CTCAE grade 1-2",Part A 25mg BD solution (N=6),2 (33.3) Number (%) of patients
same,"Diarrhea, CTCAE grade >=3",Part A 25mg BD solution (N=6),0 Number (%) of patients
same,"Dry mouth, CTCAE grade >=3",Part A 25mg BD solution (N=6),0 Number (%) of patients
same,"Dyspnea, Any grade",Part A 25mg BD solution (N=6),1 (16.7) Number (%) of patients
same,"Dyspnea, CTCAE grade 1-2",Part A 25mg BD solution (N=6),1 (16.7) Number (%) of patients
same,"Dyspnea, CTCAE grade >=3",Part A 25mg BD solution (N=6),0 Number (%) of patients
same,"Fatigue, Any grade",Part A 25mg BD solution (N=6),3 (50.0) Number (%) of patients
same,"Fatigue, CTCAE grade 1-2",Part A 25mg BD solution (N=6),2 (33.3) Number (%) of patients
same,"Fatigue, CTCAE grade >=3",Part A 25mg BD solution (N=6),1 (16.7) Number (%) of patients
same,"Hypokalemia, Any grade",Part A 25mg BD solution (N=6),2 (33.3) Number (%) of patients
same,"Hypokalemia, CTCAE grade 1-2",Part A 25mg BD solution (N=6),2 (33.3) Number (%) of patients
same,"Hypokalemia, CTCAE grade >=3",Part A 25mg BD solution (N=6),0 Number (%) of patients
same,"Lower respiratory tract infection, Any grade",Part A 25mg BD solution (N=6),1 (16.7) Number (%) of patients
same,"Lower respiratory tract infection, CTCAE grade 1-2",Part A 25mg BD solution (N=6),0 Number (%) of patients
same,"Lower respiratory tract infection, CTCAE grade >=3",Part A 25mg BD solution (N=6),1 (16.7) Number (%) of patients
same,"Mucositis, Any grade",Part A 25mg BD solution (N=6),2 (33.3) Number (%) of patients
same,"Mucositis, CTCAE grade 1-2",Part A 25mg BD solution (N=6),2 (33.3) Number (%) of patients
same,"Mucositis, CTCAE grade >=3",Part A 25mg BD solution (N=6),0 Number (%) of patients
same,"Nausea, Any grade",Part A 25mg BD solution (N=6),2 (33.3) Number (%) of patients
same,"Nausea, CTCAE grade 1-2",Part A 25mg BD solution (N=6),2 (33.3) Number (%) of patients
same,"Nausea, CTCAE grade >=3",Part A 25mg BD solution (N=6),0 Number (%) of patients
same,"Pruritus, Any grade",Part A 25mg BD solution (N=6),0 Number (%) of patients
same,"Pruritus, CTCAE grade 1-2",Part A 25mg BD solution (N=6),0 Number (%) of patients
same,"Pruritus, CTCAE grade >=3",Part A 25mg BD solution (N=6),0 Number (%) of patients
same,"Rash, Any grade",Part A 25mg BD solution (N=6),1(16.7) Number (%) of patients
same,"Rash, CTCAE grade 1-2",Part A 25mg BD solution (N=6),1(16.7) Number (%) of patients
same,"Rash, CTCAE grade >=3",Part A 25mg BD solution (N=6),0 Number (%) of patients
same,"Vomiting, Any grade",Part A 25mg BD solution (N=6),0 Number (%) of patients
same,"Vomiting, CTCAE grade 1-2",Part A 25mg BD solution (N=6),0 Number (%) of patients
same,"Vomiting, CTCAE grade >=3",Part A 25mg BD solution (N=6),0 Number (%) of patients
same,"Anemia, Any grade",Part A 70mg BD solution (N=5),1 (20.0) Number (%) of patients
same,"Anemia, CTCAE grade 1-2",Part A 70mg BD solution (N=5),0 Number (%) of patients
same,"Anemia, CTCAE grade >=3",Part A 70mg BD solution (N=5),1 (20.0) Number (%) of patients
same,"Back pain, Any grade",Part A 70mg BD solution (N=5),0 Number (%) of patients
same,"Back pain, CTCAE grade 1-2",Part A 70mg BD solution (N=5),0 Number (%) of patients
same,"Back pain, CTCAE grade >=3",Part A 70mg BD solution (N=5),0 Number (%) of patients
same,"Constipation, Any grade",Part A 70mg BD solution (N=5),0 Number (%) of patients
same,"Constipation, CTCAE grade 1-2",Part A 70mg BD solution (N=5),0 Number (%) of patients
same,"Constipation, CTCAE grade >=3",Part A 70mg BD solution (N=5),0 Number (%) of patients
same,"Cough, Any grade",Part A 70mg BD solution (N=5),1 (20.0) Number (%) of patients
same,"Cough, CTCAE grade 1-2",Part A 70mg BD solution (N=5),1 (20.0) Number (%) of patients
same,"Cough, CTCAE grade >=3",Part A 70mg BD solution (N=5),0 Number (%) of patients
same,"Decreased appetite, Any grade",Part A 70mg BD solution (N=5),2 (40.0) Number (%) of patients
same,"Decreased appetite, CTCAE grade 1-2",Part A 70mg BD solution (N=5),2 (40.0) Number (%) of patients
same,"Decreased appetite, CTCAE grade >=3",Part A 70mg BD solution (N=5),0 Number (%) of patients
same,"Diarrhea, Any grade",Part A 70mg BD solution (N=5),3 (60.0) Number (%) of patients
same,"Diarrhea, CTCAE grade 1-2",Part A 70mg BD solution (N=5),3 (60.0) Number (%) of patients
same,"Diarrhea, CTCAE grade >=3",Part A 70mg BD solution (N=5),0 Number (%) of patients
same,"Dry mouth, Any grade",Part A 70mg BD solution (N=5),0 Number (%) of patients
same,"Dry mouth, CTCAE grade 1-2",Part A 70mg BD solution (N=5),0 Number (%) of patients
same,"Dry mouth, CTCAE grade >=3",Part A 70mg BD solution (N=5),0 Number (%) of patients
same,"Dyspnea, Any grade",Part A 70mg BD solution (N=5),1 (20.0) Number (%) of patients
same,"Dyspnea, CTCAE grade 1-2",Part A 70mg BD solution (N=5),1 (20.0) Number (%) of patients
same,"Dyspnea, CTCAE grade >=3",Part A 70mg BD solution (N=5),0 Number (%) of patients
